The conditions of data set [1]: from 1 week under the conditions of 24°C, 50 % RH; water contents 24,41 %; cited from earlier work.
Data set [2] is described as follows: Storage stability at normal pressure over 1 week under ICH conditions (water content by KF). Format: physicochemical. On the procedure:
(§1) These investigations were carried out in a HERAEUS vacuum drying oven of a volume of 53 liters, at a relative humidity (RH) of less than 1 %. Investigations of storage stability at normal pressure were carried out over a period of 1 week, in compliance with the internationally accepted standards about storage stability test conditions for pharmaceuticals as defined in ICH (International Conference on Harmonization of Technical Requirements for Registration of Pharmaceuticals for Human Use), at 25°C / 60 % RH for longterm stability condition, 30°C / […] for intermediate term stability condition and 40°C / 75 % RH for accelerated stability condition.
Table 1. Water content (%, KF) of 3 lots of disodium pamidronate after storage for 1 week

Data set [3] can be described thus: Storage at room temperature at reduced pressure in vacuum drying oven (water content by KF). Format: physicochemical. The note with it: for water by KF method: room temperature, reduced pressure (20 millibar), RH less than 1 %. On the procedure:
as §1

Molecules are shown by their SMILES. Values joined by “and” are separate entries in the source; they are usually repeats but may differ in a detail not shown here. Identical values can stand only once.

Turning to `NCCC(O)(P(=O)([O-])O)P(=O)([O-])O.O.O.O.O.O.[Na+].[Na+]` [5 hydrates], in data set [1], the “loss of water contents on storage” value is given as “a part of the water contents (24,41 %) is lost”.

Consider `NCCC(O)(P(=O)([O-])O)P(=O)([O-])O.O.O.O.O.O.[Na+].[Na+]` [Lot 0034, disodium pamidronate pentahydrate], for which the “Water content (%, KF)” value in data set [2] (after storage for 1 week at 25°C/60%RH (longterm stability condition), listed as 0034) is reported as 24.37%; in data set [2] (after storage for 1 week at 30°C/60%RH (intermediate term stability condition), listed as 0034), 24.38%; in data set [2] (after storage for 1 week at 40°C/75%RH (accelerated stability condition), listed as 0034), 24.43%; in data set [2] (initial, before storage, listed as 0034) it was 24.55%.

On to `NCCC(O)(P(=O)([O-])O)P(=O)([O-])O.O.O.O.O.O.[Na+].[Na+]` [Lot 0035, disodium pamidronate pentahydrate], for which the “Water content (%, KF)” value in data set [2] (after storage for 1 week at 25°C/60%RH (longterm stability condition), listed as 0035) is recorded as 24.40%; in data set [2] (after storage for 1 week at 30°C/60%RH (intermediate term stability condition), listed as 0035), 24.39%; in data set [2] (after storage for 1 week at 40°C/75%RH (accelerated stability condition), listed as 0035), 24.27%; in data set [2] (initial, before storage, listed as 0035), 24.38%.

As to `NCCC(O)(P(=O)([O-])O)P(=O)([O-])O.O.O.O.O.O.[Na+].[Na+]` [Lot 0036, disodium pamidronate pentahydrate], the “Water content (%, KF)” value in data set [2] (after storage for 1 week at 25°C/60%RH (longterm stability condition), listed as 0036) stood at 24.32%; in data set [2] (after storage for 1 week at 30°C/60%RH (intermediate term stability condition), listed as 0036) it was 24.35%; in data set [2] (after storage for 1 week at 40°C/75%RH (accelerated stability condition), listed as 0036), 24.39%; in data set [2] (initial, before storage, listed as 0036) it was 24.48%.

As to `NCCC(O)(P(=O)([O-])O)P(=O)([O-])O.O.O.O.O.O.[Na+].[Na+]` [disodium pamidronate pentahydrate], in data set [2] (1 week at 25°C/60 % RH, 30°C/60 % RH and 40°C/75 % RH), the storage stability result is reported as “stable”. Also, the “water by KF method” value is 24.7% in data set [3] (after 4 hours of storage); 24.4% in data set [3] (after 10 hours of storage); 24.35% and 24.38% and 24.32% in data set [3] (after 38 hours of storage (determined in triplicate)). Besides, the “Stability of the product (loss of water)” value in data set [3] (stored at room temperature at reduced pressure (20 millibar)) is reported as “no loss of water”.

The values above are taken from EP1689759B1, “METHOD FOR PRODUCING PURE DISODIUM PAMIDRONATE” (Mustafa Nevzat Ilac Sanayii A.S., priority 2003, dated 2005).
